Like-named read-outs stand apart in the source and are kept apart here.
Columns and labels:
[1] = tested on: mouse FL5.12 cells transfected with Bcl-XL; assay: FL5.12 cellular assay (cell viability, CellTiter-Glo); type: cell-based; details: FL5.12 cells transfected with Bcl-XL, IL-3-depleted, 3% FBS assay media, 24 hours, CellTiter-Glo, read-out: FL5.12 Bcl-xL, - IL3, EC 50;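 further: each EC50 determination derived from duplicate measurements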
Procedure: For assaying the compound activity, the cells were exchanged into an IL-3-depleted deprivation media, which was identical to the growth media except for the absence of FBS and WEHI-3B conditional media, for 2 days. Then the cells were exchanged to 3% FBS assay media (RPMI with 2 mM glutamine, 1% 100 mM sodium pyruvate, 2% 1 M HEPES, 4 µL/L of β-mercaptoethanol, 1% penicillin-streptomycin, 3% FBS). Compounds in series dilutions were added, and the cells were cultured for 24 hours. Compounds in series dilutions were added, and the cells were cultured for 24 hours. Cell viability was assayed using the CellTiter-Glo assay (Promega Corp., Madison, WI) according to the manufacturer instructions. Individual determinations were the result of duplicate values.

GST-Bcl-xL = GST-Bcl-xL (Homo sapiens, UniProt Q07817); details: read-out: TR-FRET binding Bcl-xL Ki
Sequence of GST-Bcl-xL (Q07817 whole entry): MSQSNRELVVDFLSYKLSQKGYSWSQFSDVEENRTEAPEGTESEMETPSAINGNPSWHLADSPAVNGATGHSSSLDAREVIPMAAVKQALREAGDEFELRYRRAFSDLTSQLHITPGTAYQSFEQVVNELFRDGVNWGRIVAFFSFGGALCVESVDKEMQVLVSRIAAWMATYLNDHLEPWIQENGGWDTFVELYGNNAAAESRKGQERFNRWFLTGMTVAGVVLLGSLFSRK

Compound | EC50 ([1]; Mus musculus) [nM] | Ki (GST-Bcl-xL) [nM] | EC50 [1] [nM]
Cc1c(-c2ccc(N3CCc4cccc(C(=O)Nc5nc6ccccc6s5)c4C3C)nc2C(=O)O)cnn1CC1(C)CCCCC1 (stereo not drawn) [Example 163, 6-[8-(1,3-benzothiazol-2-ylcarbamoyl)-1-methyl-3,4-dihydroisoquinolin-2(1H)-yl]-3-{5-methyl-1-[(1-methylcyclohexyl)methyl]-1H-pyrazol-4-yl}pyridine-2-carboxylic acid] | 211 | 0.4 | 
O=C(Nc1nc2ccccc2s1)c1cccc2c1CN(c1ccc(-c3cnn(CC4CCCCC4)c3C3CC3)c(C(=O)O)n1)CC2 [Example 70, 6-[8-(1,3-benzothiazol-2-ylcarbamoyl)-3,4-dihydroisoquinolin-2(1H)-yl]-3-[1-(cyclohexylmethyl)-5-cyclopropyl-1H-pyrazol-4-yl]pyridine-2-carboxylic acid] | 58 | 5 | 
N#Cc1nn(Cc2ccccc2)cc1-c1ccc(N2CCc3cccc(C(=O)Nc4nc5ccccc5s4)c3C2)nc1C(=O)O [Example 27, 6-[8-(1,3-benzothiazol-2-ylcarbamoyl)-3,4-dihydroisoquinolin-2(1H)-yl]-3-(1-benzyl-3-cyano-1H-pyrazol-4-yl)pyridine-2-carboxylic acid] | > 1000 | 315 | 
COc1cccc(Cn2cc(-c3ccc(N4CCc5cccc(C(=O)Nc6nc7ccccc7s6)c5C4)nc3C(=O)O)cn2)c1 [Example 14, 6-[8-(1,3-benzothiazol-2-ylcarbamoyl)-3,4-dihydroisoquinolin-2(1H)-yl]-3-[1-(3-methoxybenzyl)-1H-pyrazol-4-yl]pyridine-2-carboxylic acid] |  | 12 | > 1000
O=C(Nc1nc2ccccc2s1)c1cccc2c1CN(c1ccc(-c3cn(Cc4ccccc4)c4ncccc34)c(C(=O)O)n1)CC2 [Example 141, 6-[8-(1,3-benzothiazol-2-ylcarbamoyl)-3,4-dihydroisoquinolin-2(1H)-yl]-3-(1-benzyl-1H-pyrrolo[2,3-b]pyridin-3-yl)pyridine-2-carboxylic acid] | 433 | 1 | 
O=C(Nc1nc2ccccc2s1)c1cccc2c1CN(c1ccc(-c3cnn(Cc4ccccc4OCc4ccccc4)c3)c(C(=O)O)n1)CC2 [Example 31, 6-[8-(1,3-benzothiazol-2-ylcarbamoyl)-3,4-dihydroisoquinolin-2(1H)-yl]-3-{1-[2-(benzyloxy)benzyl]-1H-pyrazol-4-yl}pyridine-2-carboxylic acid] | > 1000 | 18 | 
O=C(Nc1nc2ccccc2s1)c1cccc2c1CN(c1ccc(-c3cn(Cc4ccccc4)nn3)c(C(=O)O)n1)CC2 [Example 122, 6-[8-(1,3-benzothiazol-2-ylcarbamoyl)-3,4-dihydroisoquinolin-2(1H)-yl]-3-(1-benzyl-1H-1,2,3-triazol-4-yl)pyridine-2-carboxylic acid] | > 1000 | 117 | 
COC1(Cn2ncc(-c3ccc(N4CCc5cccc(C(=O)Nc6nc7ccccc7s6)c5C4)nc3C(=O)O)c2C)CCCCC1 [Example 165, 6-[8-(1,3-benzothiazol-2-ylcarbamoyl)-3,4-dihydroisoquinolin-2(1H)-yl]-3-{1-[(1-methoxycyclohexyl)methyl]-5-methyl-1H-pyrazol-4-yl}pyridine-2-carboxylic acid] | 9 | < 0.1 | 
Cc1c(-c2ccc(N3CCc4cccc(C(=O)Nc5nc6ccccc6s5)c4C3)nc2C(=O)O)cnn1C(CCN1CCOCC1)C1CCCCC1 (stereo not drawn) [Example 152, 6-[8-(1,3-benzothiazol-2-ylcarbamoyl)-3,4-dihydroisoquinolin-2(1H)-yl]-3-{1-[1-cyclohexyl-3-(morpholin-4-yl)propyl]-5-methyl-1H-pyrazol-4-yl}pyridine-2-carboxylic acid] | 1 | < 0.1 | 
O=C(Nc1nc2ccccc2s1)c1cccc2c1CN(c1ccc(-c3cnn(Cc4ccccc4S(=O)(=O)N4CCOCC4)c3)c(C(=O)O)n1)CC2 [Example 72, 6-[8-(1,3-benzothiazol-2-ylcarbamoyl)-3,4-dihydroisoquinolin-2(1H)-yl]-3-{1-[2-(morpholin-4-ylsulfonyl)benzyl]-1H-pyrazol-4-yl}pyridine-2-carboxylic acid] | > 1000 | 28 | 
Cc1c(OCC2CCCCC2)cccc1-c1ccc(N2CCc3cccc(C(=O)Nc4nc5ccccc5s4)c3C2)nc1C(=O)O [Example 112, 6-[8-(1,3-benzothiazol-2-ylcarbamoyl)-3,4-dihydroisoquinolin-2(1H)-yl]-3-[3-(cyclohexylmethoxy)-2-methylphenyl]pyridine-2-carboxylic acid] | 523 | 0.7 | 
O=C(Nc1nc2ccccc2s1)c1cccc2c1CN(c1ccc(-c3ccc4c(c3)CCN(Cc3ccccn3)C4)c(C(=O)O)n1)CC2 [Example 136, 6-[8-(1,3-benzothiazol-2-ylcarbamoyl)-3,4-dihydroisoquinolin-2(1H)-yl]-3-[2-(pyridin-2-ylmethyl)-1,2,3,4-tetrahydroisoquinolin-6-yl]pyridine-2-carboxylic acid] | > 1000 | 1.4 | 
Cc1ccc(S(=O)(=O)n2ccc(-c3ccc(N4CCc5cccc(C(=O)Nc6nc7ccccc7s6)c5C4)nc3C(=O)O)c2)cc1 [Example 126, 6-[8-(1,3-benzothiazol-2-ylcarbamoyl)-3,4-dihydroisoquinolin-2(1H)-yl]-3-{1-[(4-methylphenyl)sulfonyl]-1H-pyrrol-3-yl}pyridine-2-carboxylic acid] | > 1000 | 47 | 
Cc1nn(Cc2ccccc2)c(C)c1-c1ccc(N2CCc3cccc(C(=O)Nc4nc5ccccc5s4)c3C2)nc1C(=O)O [Example 12, 6-[8-(1,3-benzothiazol-2-ylcarbamoyl)-3,4-dihydroisoquinolin-2(1H)-yl]-3-(1-benzyl-3,5-dimethyl-1H-pyrazol-4-yl)pyridine-2-carboxylic acid] | 51 | 8 | 
Cc1c(-c2ccc(N3CCc4cccc(C(=O)Nc5nc6ccccc6s5)c4C3)nc2C(=O)O)cc(C#N)n1CC1(N(C)C)CCCCC1 [Example 176, 6-[8-(1,3-benzothiazol-2-ylcarbamoyl)-3,4-dihydroisoquinolin-2(1H)-yl]-3-(5-cyano-1-{[1-(dimethylamino)cyclohexyl]methyl}-2-methyl-1H-pyrrol-3-yl)pyridine-2-carboxylic acid] | 10 | < 0.1 | 
COCCC(C1CCCCC1)n1ncc(-c2ccc(N3CCc4cccc(C(=O)Nc5nc6ccccc6s5)c4C3)nc2C(=O)O)c1C (stereo not drawn) [Example 184, 6-[8-(1,3-benzothiazol-2-ylcarbamoyl)-3,4-dihydroisoquinolin-2(1H)-yl]-3-[1-(1-cyclohexyl-3-methoxypropyl)-5-methyl-1H-pyrazol-4-yl]pyridine-2-carboxylic acid] | 2 | < 0.1 | 
COCCCC1(Cn2ncc(-c3ccc(N4CCc5cccc(C(=O)Nc6nc7ccccc7s6)c5C4)nc3C(=O)O)c2C)CCCCC1 [Example 97, 6-[8-(1,3-benzothiazol-2-ylcarbamoyl)-3,4-dihydroisoquinolin-2(1H)-yl]-3-(1-{[1-(3-methoxypropyl)cyclohexyl]methyl}-5-methyl-1H-pyrazol-4-yl)pyridine-2-carboxylic acid] |  | 2 | < 1
CC1(C)CCCC(Cn2cc(-c3ccc(N4CCc5cccc(C(=O)Nc6nc7ccccc7s6)c5C4)nc3C(=O)O)cn2)C1 (stereo not drawn) [Example 92, 6-[8-(1,3-benzothiazol-2-ylcarbamoyl)-3,4-dihydroisoquinolin-2(1H)-yl]-3-{1-[(3,3-dimethylcyclohexyl)methyl]-1H-pyrazol-4-yl}pyridine-2-carboxylic acid] | 56 | 2 | 
Cc1c(-c2ccc(N3CCc4cccc(C(=O)Nc5nc6ccccc6s5)c4C3)nc2C(=O)O)ccnc1N1CCCCC1 [Example 183, 6-[8-(1,3-benzothiazol-2-ylcarbamoyl)-3,4-dihydroisoquinolin-2(1H)-yl]-3'-methyl-2'-(piperidin-1-yl)-3,4'-bipyridine-2-carboxylic acid] | 507 | 0.7 | 
Cc1c(-c2ccc(N3CCc4cccc(C(=O)Nc5nc6ccccc6s5)c4C3)nc2C(=O)O)cnn1Cc1ccccc1F [Example 41, 6-[8-(1,3-benzothiazol-2-ylcarbamoyl)-3,4-dihydroisoquinolin-2(1H)-yl]-3-[1-(2-fluorobenzyl)-5-methyl-1H-pyrazol-4-yl]pyridine-2-carboxylic acid] | 11 | 1 | 
O=C(Nc1nc2ccccc2s1)c1cccc2c1CN(c1ccc(-c3cnn(Cc4cccc(-c5ccccc5)c4)c3)c(C(=O)O)n1)CC2 [Example 58, 6-[8-(1,3-benzothiazol-2-ylcarbamoyl)-3,4-dihydroisoquinolin-2(1H)-yl]-3-[1-(biphenyl-3-ylmethyl)-1H-pyrazol-4-yl]pyridine-2-carboxylic acid] | > 1000 | 174 | 
O=C(Nc1nc2ccccc2s1)c1cccc2c1CN(c1ccc(-c3cnn(CCC4CCCCC4)c3)c(C(=O)O)n1)CC2 [Example 60, 6-[8-(1,3-benzothiazol-2-ylcarbamoyl)-3,4-dihydroisoquinolin-2(1H)-yl]-3-[1-(2-cyclohexylethyl)-1H-pyrazol-4-yl]pyridine-2-carboxylic acid] | 219 | 5 | 
CS(=O)(=O)c1cccc(Cn2cc(-c3ccc(N4CCc5cccc(C(=O)Nc6nc7ccccc7s6)c5C4)nc3C(=O)O)cn2)c1 [Example 69, 6-[8-(1,3-benzothiazol-2-ylcarbamoyl)-3,4-dihydroisoquinolin-2(1H)-yl]-3-{1-[3-(methylsulfonyl)benzyl]-1H-pyrazol-4-yl}pyridine-2-carboxylic acid] | > 1000 | 91 | 
O=C(Nc1nc2ccccc2s1)c1cccc2c1CN(c1ccc(-c3cccc(Oc4ccc(Cl)cc4)c3)c(C(=O)O)n1)CC2 [Example 105, 6-[8-(1,3-benzothiazol-2-ylcarbamoyl)-3,4-dihydroisoquinolin-2(1H)-yl]-3-[3-(4-chlorophenoxy)phenyl]pyridine-2-carboxylic acid] | > 1000 | 7 | 

— patent EP2768830B1, “APOPTOSIS-INDUCING AGENTS FOR THE TREATMENT OF CANCER AND IMMUNE AND AUTOIMMUNE DISEASES” (AbbVie Inc., priority 2011, dated 2013)
